One assay concerns the target BRM (Homo sapiens, UniProt P51531). Kind of assay: ATPase catalytic activity assay of BRM (ADP-Glo). It is filed as biochemical. To be noted: for IC50: read-out: BRM IC50 (μM)*. As to the method:
(§1) The ATPase catalytic activity of BRM or BRG-1 was measured by the in vitro biochemical assay using ADP-Glo™ (Promega, V9102). The ADP-Glo™ kinase assay is performed in two steps once the reaction is complete. The first step is to deplete any unconsumed ATP in the reaction. The second step is to convert the reaction product ADP to ATP, which will be utilized by the luciferase to generate luminesce and be detected by a luminescence reader, such as Envision.
(§2) Then following addition of 5 μL of ADP-Glo™ Reagent provided in the kit, the reaction incubates at room temperature for 40 minutes. Then 10 μL of Kinase Detection Reagent provided in the kit is added to convert ADP to ATP, and the reaction incubates at room temperature for 60 minutes. Finally, luminescence measurement is collected with a plate-reading luminometer, such as Envision.
(§3) The ADP-Glo™ kinase assay is performed in two steps once the reaction is complete. The first step is to deplete any unconsumed ATP in the reaction. The second step is to convert the reaction product ADP to ATP, which will be utilized by the luciferase to generate luminesce and be detected by a luminescence reader, such as Envision.
(ADP-Glo first removes unused ATP, then detects ADP through luciferase.)

The next assay addresses BRG-1 (Homo sapiens, UniProt P51532). Kind of assay: ATPase catalytic activity assay of BRG-1 (ADP-Glo). Format: biochemical. Conditions: ATPase catalytic activity, ADP-Glo; for IC50: read-out: BRG1 IC50 (μM)*; for Emax: read-out: BRG1 Max % Inhibition. As to the method:
as §1, §2, §3

BRG-1, sequence (P51532 whole entry): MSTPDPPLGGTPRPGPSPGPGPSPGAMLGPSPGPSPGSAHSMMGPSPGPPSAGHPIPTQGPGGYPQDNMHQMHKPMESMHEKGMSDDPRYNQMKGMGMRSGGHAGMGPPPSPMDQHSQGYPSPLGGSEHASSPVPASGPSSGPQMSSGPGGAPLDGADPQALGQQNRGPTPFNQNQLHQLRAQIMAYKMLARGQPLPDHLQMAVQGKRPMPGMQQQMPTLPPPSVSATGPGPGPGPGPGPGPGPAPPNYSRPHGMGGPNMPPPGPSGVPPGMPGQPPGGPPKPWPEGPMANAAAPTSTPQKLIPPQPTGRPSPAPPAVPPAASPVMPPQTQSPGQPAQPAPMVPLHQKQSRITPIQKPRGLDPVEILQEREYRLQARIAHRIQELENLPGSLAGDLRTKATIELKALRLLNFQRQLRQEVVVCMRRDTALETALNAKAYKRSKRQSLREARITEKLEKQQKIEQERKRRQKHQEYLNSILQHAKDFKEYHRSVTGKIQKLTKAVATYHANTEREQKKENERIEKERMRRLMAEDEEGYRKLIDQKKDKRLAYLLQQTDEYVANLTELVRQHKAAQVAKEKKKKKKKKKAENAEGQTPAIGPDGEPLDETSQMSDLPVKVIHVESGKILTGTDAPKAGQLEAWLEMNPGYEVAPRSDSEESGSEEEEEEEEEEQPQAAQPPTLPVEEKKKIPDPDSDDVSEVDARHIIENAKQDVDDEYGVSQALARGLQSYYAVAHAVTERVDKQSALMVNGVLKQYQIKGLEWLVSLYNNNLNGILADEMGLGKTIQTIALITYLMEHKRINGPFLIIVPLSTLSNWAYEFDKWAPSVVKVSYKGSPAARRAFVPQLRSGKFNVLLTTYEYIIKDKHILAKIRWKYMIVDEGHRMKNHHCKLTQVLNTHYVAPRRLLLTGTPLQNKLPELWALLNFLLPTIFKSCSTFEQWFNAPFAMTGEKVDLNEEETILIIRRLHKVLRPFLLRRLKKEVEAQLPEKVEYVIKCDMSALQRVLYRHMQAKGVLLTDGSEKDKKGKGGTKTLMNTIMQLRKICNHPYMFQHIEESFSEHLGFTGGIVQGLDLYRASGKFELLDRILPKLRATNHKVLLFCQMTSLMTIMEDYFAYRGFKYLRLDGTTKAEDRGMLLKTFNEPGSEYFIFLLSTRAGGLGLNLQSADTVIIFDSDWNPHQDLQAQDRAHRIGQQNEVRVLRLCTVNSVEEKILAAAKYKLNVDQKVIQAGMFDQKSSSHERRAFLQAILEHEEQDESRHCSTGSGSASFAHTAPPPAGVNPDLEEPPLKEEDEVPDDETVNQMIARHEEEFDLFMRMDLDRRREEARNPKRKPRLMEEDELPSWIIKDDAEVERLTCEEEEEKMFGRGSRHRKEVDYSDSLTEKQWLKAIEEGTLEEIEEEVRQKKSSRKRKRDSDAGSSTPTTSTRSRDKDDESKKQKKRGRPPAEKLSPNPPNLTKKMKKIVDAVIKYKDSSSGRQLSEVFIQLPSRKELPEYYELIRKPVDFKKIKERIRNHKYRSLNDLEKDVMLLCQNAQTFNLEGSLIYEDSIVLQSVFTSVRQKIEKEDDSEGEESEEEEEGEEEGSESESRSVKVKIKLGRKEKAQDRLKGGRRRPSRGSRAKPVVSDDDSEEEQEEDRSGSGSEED
BRM, sequence (P51531 whole entry): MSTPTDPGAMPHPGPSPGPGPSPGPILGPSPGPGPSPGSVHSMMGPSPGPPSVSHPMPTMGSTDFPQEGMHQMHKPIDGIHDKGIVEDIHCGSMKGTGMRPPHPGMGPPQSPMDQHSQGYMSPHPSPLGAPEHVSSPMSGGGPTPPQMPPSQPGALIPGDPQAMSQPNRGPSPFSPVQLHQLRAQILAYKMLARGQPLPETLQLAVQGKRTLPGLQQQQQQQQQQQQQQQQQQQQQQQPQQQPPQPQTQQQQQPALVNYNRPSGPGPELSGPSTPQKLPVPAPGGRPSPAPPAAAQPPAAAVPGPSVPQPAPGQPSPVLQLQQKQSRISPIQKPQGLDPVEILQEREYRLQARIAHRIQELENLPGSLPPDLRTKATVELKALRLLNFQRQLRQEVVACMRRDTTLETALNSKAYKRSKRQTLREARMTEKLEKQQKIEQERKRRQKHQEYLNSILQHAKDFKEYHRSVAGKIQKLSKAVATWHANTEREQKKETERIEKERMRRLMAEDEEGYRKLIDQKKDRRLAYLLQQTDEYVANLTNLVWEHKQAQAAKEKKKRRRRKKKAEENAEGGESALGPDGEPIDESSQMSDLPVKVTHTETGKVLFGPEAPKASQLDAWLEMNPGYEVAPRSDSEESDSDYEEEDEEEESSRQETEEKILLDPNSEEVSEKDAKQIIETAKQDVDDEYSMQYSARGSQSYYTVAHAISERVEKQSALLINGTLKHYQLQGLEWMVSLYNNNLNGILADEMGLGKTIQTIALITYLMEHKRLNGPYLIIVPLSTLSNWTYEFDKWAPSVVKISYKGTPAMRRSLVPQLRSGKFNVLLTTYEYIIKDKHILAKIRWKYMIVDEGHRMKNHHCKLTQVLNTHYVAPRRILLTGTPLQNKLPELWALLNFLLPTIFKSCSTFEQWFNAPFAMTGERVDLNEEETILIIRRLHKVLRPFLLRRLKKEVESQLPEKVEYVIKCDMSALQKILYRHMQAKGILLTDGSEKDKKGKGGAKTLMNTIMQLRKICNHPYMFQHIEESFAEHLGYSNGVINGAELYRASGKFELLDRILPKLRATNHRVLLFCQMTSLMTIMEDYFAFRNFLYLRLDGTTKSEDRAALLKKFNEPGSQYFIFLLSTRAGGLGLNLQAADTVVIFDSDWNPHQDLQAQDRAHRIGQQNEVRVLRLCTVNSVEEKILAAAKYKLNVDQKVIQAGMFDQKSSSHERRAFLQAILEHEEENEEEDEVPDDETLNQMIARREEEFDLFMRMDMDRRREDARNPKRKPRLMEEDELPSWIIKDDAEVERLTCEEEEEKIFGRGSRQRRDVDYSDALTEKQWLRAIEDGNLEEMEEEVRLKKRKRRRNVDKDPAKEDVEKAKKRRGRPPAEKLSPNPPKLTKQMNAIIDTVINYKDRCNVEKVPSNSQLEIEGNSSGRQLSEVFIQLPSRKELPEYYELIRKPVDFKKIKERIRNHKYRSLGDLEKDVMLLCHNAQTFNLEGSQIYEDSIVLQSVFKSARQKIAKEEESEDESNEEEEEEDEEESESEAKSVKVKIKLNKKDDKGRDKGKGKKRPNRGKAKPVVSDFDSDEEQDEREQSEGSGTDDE

For the molecule `COC(=O)N1CCC[C@H](c2csc(NC(=O)CNC(=O)c3ccc4c(c3)C(C)(F)COC4)n2)C1` (stereo in doubt) [Compound 301, methyl (S)-3-(2-(2-((R)-4-fluoro-4-methylisochromane-6-carboxamido)acetamido)thiazol-4-yl)piperidine-1-carboxylate], on BRM, the “BRM Max % Inhibition” value is reported as >95% and the IC50 was in the range of 0.1 to 1 µM. In addition, on BRG-1, the IC50 was in the range of 1 to 5 µM and the Emax was > 95%.

For `COC(=O)N1CCCC(c2csc(NC(=O)CNC(=O)c3ccc4c(c3)[C@](C)(F)COC4)n2)C1` (stereo in doubt) [Compound 302, methyl (S)-3-(2-(2-((S)-4-fluoro-4-methylisochromane-6-carboxamido)acetamido)thiazol-4-yl)piperidine-1-carboxylate], at BRM, the “BRM Max % Inhibition” value was >95% and the IC50 was < 0.1 µM. For the same molecule, on BRG-1, the IC50 is 0.1 to 1 µM and the Emax is > 95%.

In the case of `C[C@@H]1CN(c2cccc(-c3csc(NC(=O)CNC(=O)c4ccc5c(c4)C(F)(C(F)F)COC5)n3)c2)C[C@H](C)O1` (stereo in doubt) [Compound 307, (R)-4-(difluoromethyl)-N-(2-((4-(3-((cis)-2,6-dimethylmorpholino)phenyl)thiazol-2-yl)amino)-2-oxoethyl)-4-fluoroisochromane-6-carboxamide], at BRM, the “BRM Max % Inhibition” value was >95% and the IC50 was < 0.1 µM. For the same molecule, at BRG-1, the IC50 was < 0.1 µM and the Emax is > 95%.

As for `C[C@@H]1CN(c2cccc(-c3csc(NC(=O)CNC(=O)c4ccc5c(c4)C(F)(C(F)F)COC5)n3)c2)C[C@H](C)O1` (stereo in doubt) [Compound 308, (S)-4-(difluoromethyl)-N-(2-((4-(3-((cis)-2,6-dimethylmorpholino)phenyl)thiazol-2-yl)amino)-2-oxoethyl)-4-fluoroisochromane-6-carboxamide], at BRM, the “BRM Max % Inhibition” value is >95% and the half-inhibitory concentration (IC50) was < 0.1 µM. Also, at BRG-1, the IC50 was < 0.1 µM and the Emax was > 95%.

For `CC(NC(=O)c1ccc2c(c1)[C@](C)(F)COC2)C(=O)Nc1nc(-c2cccc(N3CCC3)c2)cs1` (stereo in doubt) [Compound 319, (S)-N-((R)-1-((4-(3-(azetidin-1-yl)phenyl)thiazol-2-yl)amino)-1-oxopropan-2-yl)-4-fluoro-4-methylisochromane-6-carboxamide], on BRM, the “BRM Max % Inhibition” value is given as >95% and the IC50 was < 0.1 µM. Further, at BRG-1, the IC50 lay in the range of 0.1 to 1 µM and the Emax is > 95%.

For the molecule `COc1cccc(-c2csc(NC(=O)CNC(=O)c3ccc4c(c3)C(C)(F)CCCO4)n2)c1` (stereo in doubt) [Compound 324, (S)-5-fluoro-N-(2-((4-(3-methoxyphenyl)thiazol-2-yl)amino)-2-oxoethyl)-5-methyl-2,3,4,5-tetrahydrobenzo[b]oxepine-7-carboxamide], at BRM, the “BRM Max % Inhibition” value is >90% and the IC50 is 0.1 to 1 µM. Moreover, on BRG-1, the IC50 lay within 0.1 to 1 µM and the Emax was > 90%.

Take `COc1cccc(-c2csc(NC(=O)CNC(=O)c3ccc4c(c3)C(C)(F)CCCO4)n2)c1` (stereo in doubt) [Compound 325, (R)-5-fluoro-N-(2-((4-(3-methoxyphenyl)thiazol-2-yl)amino)-2-oxoethyl)-5-methyl-2,3,4,5-tetrahydrobenzo[b]oxepine-7-carboxamide]: on BRM, the “BRM Max % Inhibition” value is recorded as >95% and the IC50 was in the range of 0.1 to 1 µM. At BRG-1, the IC50 lay within 0.1 to 1 µM and the Emax was > 95%.

Turning to `COCC(NC(=O)c1ccc2c(c1)[C@](C)(F)COC2)C(=O)Nc1nc(-c2cccc(C(F)F)c2)cs1` (stereo in doubt) [Compound 327, (S)-N-((R)-1-((4-(3-(difluoromethyl)phenyl)thiazol-2-yl)amino)-3-methoxy-1-oxopropan-2-yl)-4-fluoro-4-methylisochromane-6-carboxamide], on BRM, the “BRM Max % Inhibition” value is given as >95% and the half-maximal inhibitory concentration (IC50) is < 0.1 µM. In addition, at BRG-1, the IC50 was in the range of 0.1 to 1 µM and the Emax was > 95%.

With `COc1cc(F)cc(-c2csc(NC(=O)C(C)NC(=O)c3ccc4c(c3)[C@](C)(F)COC4)n2)c1` (stereo in doubt) [Compound 334, (S)-4-fluoro-N-((R)-1-((4-(3-fluoro-5-methoxyphenyl)thiazol-2-yl)amino)-1-oxopropan-2-yl)-4-methylisochromane-6-carboxamide], on BRM, the “BRM Max % Inhibition” value is listed as >95% and the IC50 was < 0.1 µM. On BRG-1, the IC50 was in the range of 0.1 to 1 µM and the Emax was > 95%.

For the molecule `COC(=O)N1CCC[C@@H](c2csc(NC(=O)CNC(=O)c3ccc4c(c3)[C@@](C)(C#N)COC4)n2)C1` (stereo in doubt) [Compound 354, methyl (R)-3-(2-(2-((S)-4-cyano-4-methylisochromane-6-carboxamido)acetamido)thiazol-4-yl)piperidine-1-carboxylate], on BRM, the “BRM Max % Inhibition” value was >95% and the IC50 lay in the range of 0.1 to 1 µM. At BRG-1, the IC50 lay within 0.1 to 1 µM and the Emax was > 95%.

As for `C[C@@H]1CN(c2cccc(-c3csc(NC(=O)CNC(=O)c4ccc5c(c4)C(C)(CO)COC5)n3)c2)C[C@H](C)O1` (stereo in doubt) [Compound 372, (R)-N-(2-((4-(3-((cis)-2,6-dimethylmorpholino)phenyl)thiazol-2-yl)amino)-2-oxoethyl)-4-(hydroxymethyl)-4-methylisochromane-6-carboxamide], at BRM, the “BRM Max % Inhibition” value was >95% and the IC50 is < 0.1 µM. Further, on BRG-1, the IC50 was 0.1 to 1 µM and the Emax is > 95%.

Consider `C[C@@H]1CN(c2cccc(-c3csc(NC(=O)CNC(=O)c4ccc5c(c4)C(C)(CO)COC5)n3)c2)C[C@H](C)O1` (stereo in doubt) [Compound 373, (S)-N-(2-((4-(3-((cis)-2,6-dimethylmorpholino)phenyl)thiazol-2-yl)amino)-2-oxoethyl)-4-(hydroxymethyl)-4-methylisochromane-6-carboxamide], for which, on BRM, the “BRM Max % Inhibition” value was >90% and the concentration for half-maximal inhibition (IC50) fell in the range of 0.1 to 1 µM. On BRG-1, the IC50 was 1 to 5 µM and the Emax is > 90%.

Consider `CC1(C#N)CCOc2ccc(C(=O)NCC(=O)Nc3nc(-c4cccc([C@H]5CC5(F)F)n4)cs3)cc21` (stereo in doubt) [Compound 378, (S)-4-cyano-N-(2-((4-(6-((R)-2,2-difluorocyclopropyl)pyridin-2-yl)thiazol-2-yl)amino)-2-oxoethyl)-4-methylchromane-6-carboxamide], for which, at BRM, the “BRM Max % Inhibition” value is recorded as >95% and the IC50 was in the range of 0.1 to 1 µM. At BRG-1, the IC50 lay within 1 to 5 µM and the Emax is > 95%.

On to `CC1(C#N)CCOc2ccc(C(=O)NCC(=O)Nc3nc(-c4cccc([C@@H]5CC5(F)F)n4)cs3)cc21` (stereo in doubt) [Compound 380, (S)-4-cyano-N-(2-((4-(6-((S)-2,2-difluorocyclopropyl)pyridin-2-yl)thiazol-2-yl)amino)-2-oxoethyl)-4-methylchromane-6-carboxamide], for which, at BRM, the “BRM Max % Inhibition” value is on record as >85% and the IC50 is 0.1 to 1 µM. In addition, on BRG-1, the IC50 was in the range of 1 to 5 µM and the Emax was > 85%.

What is called IC50 is the concentration needed to halve the response being measured.
